Literature values in patent US20030212112A1, “Method for administering a phosphodiesterase 4 inhibitor” (SmithKline Beecham Corporation, priority 1999, published 2003).

Conditions: clinical studies / indications reported in background

Row | Structure (SMILES) | side effects
1 | CCCCn1c(=O)c2c(ncn2CC(C)=O)n(CCCC)c1=O [denbufylline] | may include pyrosis, nausea and emesis
2 | COc1ccc(C2CNC(=O)C2)cc1OC1CCCC1 (centres unmarked) [rolipram] | psychotropic activity and produces gastrointestinal effects
